{"source": "patent US20170052170A1", "about": "“NOVEL CELL LINES AND METHODS” (priority 2009, published 2017)", "key": {"[1]": {"target": "T1, human odorant receptor OR3A1 (Homo sapiens, UniProt P47881, R125Q)", "T1 construct": "expressed in transfected cells; host or cells: 293T (HEK293T)", "T1 sequence (P47881 1-315 R125Q)": "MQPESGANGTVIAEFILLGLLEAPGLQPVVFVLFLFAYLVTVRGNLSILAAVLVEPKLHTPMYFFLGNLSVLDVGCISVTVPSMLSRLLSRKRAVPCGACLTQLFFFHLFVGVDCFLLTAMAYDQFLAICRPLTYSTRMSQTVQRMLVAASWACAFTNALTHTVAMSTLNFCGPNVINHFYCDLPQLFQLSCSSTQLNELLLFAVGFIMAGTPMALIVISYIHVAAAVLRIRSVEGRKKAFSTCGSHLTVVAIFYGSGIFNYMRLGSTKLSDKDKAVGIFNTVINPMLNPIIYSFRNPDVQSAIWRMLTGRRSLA", "assay": "Calcium mobilization (Fluo-4) assay, HEK293T cells expressing OR3A1 and human Gα15", "assay_type": "cell-based", "conditions": "final concentration 4.5 mM, vs DMSO vehicle, FIG. 29A", "procedure": "(§1) Populations of cells were tested using functional criteria. Calcium mobilization dye Fluo-4 (Invitrogen) was used according to manufacturer's instructions. HEK293T cell lines stably expressing h-OR were maintained under standard cell culture conditions in DMEM medium supplemented with 10% fetal bovine serum and glutamine. On the day before assay, the cells were harvested from stock plates and plated into black clear-bottom 384 well assay plates. The assay plates were maintained in a 37° C. cell culture incubator under 5% CO2 for 22-48 hours. […] The assay plates were then loaded on a fluorescent plate reader (Hamamatsu FDSS) and agonist (4.5 mM Helional for OR3A1 and 0.3 mM Bourgeonal for OR1D2-FIGS. 29A, 29B) dissolved in the above buffer (130 mM NaCl, 5 mM KCl, 2 mM CaCl2, 1.2 mM MgCl2, 10 mM HEPES, 10 mM glucose, pH 7.0) was added. Cells were tested at multiple different densities in 384-well plates and responses were analyzed. […]\n(§2) In order to identify and measure the ligand-induced responsiveness of odorant receptor-expressing HEK293T cells, receptor activation are monitored by measuring receptor-triggered alterations in intracellular calcium levels. […] Software (Hamamatsu FDSS) analysis of images reports the change in relative fluorescence for each well in the cell plate."}, "[2]": {"target": "T1, human odorant receptor OR3A1", "assay": "calcium flux assay in cell line expressing human odorant receptor OR3A1", "assay_type": "cell-based", "conditions": "final concentration 4.5 mM", "procedure": "(§3) FIG. 29 (A-B) depicts representative traces of the functional cell-based response of cells expressing a human odorant receptor to Helional and to Bourgeonal compared to background. FIG. 29A depicts representative traces of the functional cell-based response of a cell line described herein expressing human odorant receptor OR3A1 to Helional (to a final concentration of 4.5 mM) compared to DMSO vehicle background signal as control. Test (black) and control (gray) traces are overlaid. […] The cell-based assay was designed to report calcium flux using a fluorescent calcium signaling dye. Fluorescent assay response is plotted along the Y-axis and time is indicated along the X-axis. Arrows indicate the timepoint at which Helional or DMSO was added."}, "[3]": {"target": "T2, human odorant receptor OR1D2 (Homo sapiens, UniProt P34982)", "T2 construct": "expressed in transfected cells; host or cells: 293T (HEK293T)", "T2 sequence (P34982 1-312)": "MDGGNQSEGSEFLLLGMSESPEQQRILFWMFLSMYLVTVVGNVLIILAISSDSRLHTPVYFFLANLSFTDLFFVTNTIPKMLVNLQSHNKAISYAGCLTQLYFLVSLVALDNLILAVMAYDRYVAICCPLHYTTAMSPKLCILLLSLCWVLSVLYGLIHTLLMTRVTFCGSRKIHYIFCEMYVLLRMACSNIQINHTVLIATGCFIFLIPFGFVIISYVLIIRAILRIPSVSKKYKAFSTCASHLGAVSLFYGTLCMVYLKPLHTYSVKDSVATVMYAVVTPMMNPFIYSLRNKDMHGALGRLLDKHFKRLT", "assay": "calcium flux assay in cell line expressing human odorant receptor OR1D2", "assay_type": "cell-based", "conditions": "final concentration 0.3 mM", "procedure": "as §3, with “29B” for “29 (A-B) depicts representative traces of the functional cell-based response of cells expressing a human odorant receptor to Helional and to Bourgeonal compared to background. FIG. 29A”, “OR1D2” for “OR3A1”, “Bourgeonal” for “Helional”, “0.3” for “4.5”"}, "[4]": {"target": "T2, human odorant receptor OR1D2", "assay": "Calcium mobilization (Fluo-4) assay, HEK293T cells expressing OR1D2 and human Gα15", "assay_type": "cell-based", "conditions": "final concentration 0.3 mM, vs DMSO vehicle, FIG. 29B", "procedure": "as §1, §2"}, "[5]": {"target": "T3, sweet taste receptor (T1R2/T1R3) (Homo sapiens, UniProt Q7RTX0+Q8TE23, C757R/I191V/I486V/R317G)", "T3 construct": "expressed in transfected cells; host or cells: HEK293T (ATCC CRL-11268)", "T3 sequence (Q8TE23 20-839 I191V/R317G/I486V)": "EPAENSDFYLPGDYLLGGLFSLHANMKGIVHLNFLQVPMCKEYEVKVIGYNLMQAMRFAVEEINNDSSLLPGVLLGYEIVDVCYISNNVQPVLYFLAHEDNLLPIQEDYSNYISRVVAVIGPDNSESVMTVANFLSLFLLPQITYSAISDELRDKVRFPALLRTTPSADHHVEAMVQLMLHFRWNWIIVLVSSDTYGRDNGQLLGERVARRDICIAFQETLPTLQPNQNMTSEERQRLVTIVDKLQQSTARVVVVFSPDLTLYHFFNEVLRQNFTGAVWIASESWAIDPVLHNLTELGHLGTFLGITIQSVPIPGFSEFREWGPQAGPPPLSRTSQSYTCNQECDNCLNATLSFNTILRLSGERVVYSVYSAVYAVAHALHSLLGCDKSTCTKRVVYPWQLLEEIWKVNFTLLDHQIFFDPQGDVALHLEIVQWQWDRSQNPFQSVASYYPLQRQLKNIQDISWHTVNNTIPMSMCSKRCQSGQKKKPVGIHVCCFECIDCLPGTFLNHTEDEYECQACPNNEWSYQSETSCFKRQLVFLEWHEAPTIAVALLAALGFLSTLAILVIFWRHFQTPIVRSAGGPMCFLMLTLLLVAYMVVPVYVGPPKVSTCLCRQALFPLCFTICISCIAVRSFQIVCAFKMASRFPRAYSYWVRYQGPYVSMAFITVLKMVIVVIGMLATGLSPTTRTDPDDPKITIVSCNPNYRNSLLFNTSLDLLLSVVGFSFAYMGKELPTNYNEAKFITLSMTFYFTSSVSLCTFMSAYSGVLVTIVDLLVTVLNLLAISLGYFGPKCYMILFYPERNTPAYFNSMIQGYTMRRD", "T3 sequence (Q7RTX0 21-852 C757R)": "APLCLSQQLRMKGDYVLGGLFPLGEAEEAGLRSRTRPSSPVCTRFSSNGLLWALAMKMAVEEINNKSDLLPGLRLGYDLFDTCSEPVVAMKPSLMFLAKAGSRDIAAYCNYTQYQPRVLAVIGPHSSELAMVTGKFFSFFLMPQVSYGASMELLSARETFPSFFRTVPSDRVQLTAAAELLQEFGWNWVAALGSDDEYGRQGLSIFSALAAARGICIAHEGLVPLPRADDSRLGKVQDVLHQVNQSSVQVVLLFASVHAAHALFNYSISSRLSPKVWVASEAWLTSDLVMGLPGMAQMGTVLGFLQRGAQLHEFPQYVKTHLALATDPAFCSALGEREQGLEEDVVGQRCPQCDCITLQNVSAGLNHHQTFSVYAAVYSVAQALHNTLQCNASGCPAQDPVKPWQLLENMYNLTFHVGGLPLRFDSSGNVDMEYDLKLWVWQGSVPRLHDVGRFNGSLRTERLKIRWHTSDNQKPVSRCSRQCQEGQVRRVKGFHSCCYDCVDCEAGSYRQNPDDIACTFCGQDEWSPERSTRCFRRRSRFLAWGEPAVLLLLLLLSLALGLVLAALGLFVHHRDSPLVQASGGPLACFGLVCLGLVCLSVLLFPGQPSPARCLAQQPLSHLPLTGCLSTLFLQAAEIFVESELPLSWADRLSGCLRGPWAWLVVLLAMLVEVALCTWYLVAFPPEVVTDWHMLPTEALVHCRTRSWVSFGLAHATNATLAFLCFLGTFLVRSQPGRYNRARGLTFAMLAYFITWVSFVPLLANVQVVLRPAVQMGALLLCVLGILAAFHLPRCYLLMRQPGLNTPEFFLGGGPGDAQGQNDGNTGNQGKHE", "assay": "Sweet cell-based calcium flux assay, HEK293T cells expressing T1R2, T1R3 and mouse Gα15", "conditions": "FIG. 20; high density, coated plates, low glucose media, serum deprivation", "quoted_text": "Plates are then loaded on a high throughput plate reader (Hamamatsu FDSS). […] Calcium flux is detected for 90 seconds."}, "[6]": {"target": "T4, umami taste receptor (T1R1 and T1R3 subunits, Gα15) (Homo sapiens, UniProt Q7RTX0+Q7RTX1, C757R)", "T4 construct": "expressed in transfected cells; host or cells: HEK293T (ATCC CRL-11268)", "T4 sequence (Q7RTX1 21-841)": "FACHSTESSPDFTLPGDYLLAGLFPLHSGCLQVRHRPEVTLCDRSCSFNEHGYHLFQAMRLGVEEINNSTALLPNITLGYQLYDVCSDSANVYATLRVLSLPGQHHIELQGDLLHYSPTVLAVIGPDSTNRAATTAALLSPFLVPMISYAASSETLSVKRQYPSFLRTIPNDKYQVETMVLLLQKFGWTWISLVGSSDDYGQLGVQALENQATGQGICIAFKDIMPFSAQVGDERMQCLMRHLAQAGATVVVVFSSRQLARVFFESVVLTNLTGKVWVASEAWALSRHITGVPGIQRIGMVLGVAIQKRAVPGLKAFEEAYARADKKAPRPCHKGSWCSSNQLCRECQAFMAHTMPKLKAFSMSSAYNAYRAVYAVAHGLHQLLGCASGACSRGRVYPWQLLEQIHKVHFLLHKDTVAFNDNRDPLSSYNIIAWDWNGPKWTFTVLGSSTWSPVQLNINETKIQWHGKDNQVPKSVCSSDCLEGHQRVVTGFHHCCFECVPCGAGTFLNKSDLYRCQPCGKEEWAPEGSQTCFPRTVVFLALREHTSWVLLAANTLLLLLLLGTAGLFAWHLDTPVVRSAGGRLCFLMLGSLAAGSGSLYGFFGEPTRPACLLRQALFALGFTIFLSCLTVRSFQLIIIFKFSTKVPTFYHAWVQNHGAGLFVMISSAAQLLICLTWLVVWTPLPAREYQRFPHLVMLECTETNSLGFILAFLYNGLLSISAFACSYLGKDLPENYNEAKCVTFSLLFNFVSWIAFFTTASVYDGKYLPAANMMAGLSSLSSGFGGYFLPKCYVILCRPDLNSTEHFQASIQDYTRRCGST", "T4 sequence (Q7RTX0 21-852 C757R)": "T3 sequence (Q7RTX0 21-852 C757R)", "assay": "umami taste receptor-expressing cell-based assay", "conditions": "FIGS. 9-12", "from_the_text": "To identify a taste receptor modulator (e.g., umami taste receptor modulator or sweet taste receptor modulator), one exposes a cell or cell line of the invention to a test compound under conditions in which the taste receptor (e.g., umami taste receptor or sweet taste receptor) would be expected to be functional and then detects a statistically significant change (e.g., p<0.05) in taste receptor activity (e.g., umami taste receptor activity or sweet taste receptor activity) compared to a suitable control, e.g., cells that are not exposed to the test compound. Positive and/or negative controls using known agonists or antagonists and/or cells expressing different combinations of taste receptor subunits (e.g., umami taste receptor subunits or sweet taste receptor subunits) (and optionally a G protein) may also be used. In some embodiments, the taste receptor activity (e.g., umami taste receptor activity or sweet taste receptor activity) to be detected and/or measured is calcium release from the endoplasmic reticulum as a result of the down stream signaling events following taste receptor activation (e.g., umami taste receptor activation or sweet taste receptor activation). One of ordinary skill in the art would understand that various assay parameters may be optimized, e.g., signal to noise ratio."}}, "data": [{"compound": "CC(C=O)Cc1ccc2c(c1)OCO2", "note": "(stereo not drawn) [Helional]", "values": [{"measurement": "functional cell-based calcium flux response", "setting": "[1]", "result": "response to Helional over background"}, {"measurement": "functional cell-based (calcium flux) response compared to DMSO vehicle background", "setting": "[2]", "result": "response to Helional over background"}]}, {"compound": "CC(C)(C)c1ccc(CCC=O)cc1", "note": "[Bourgeonal]", "values": [{"measurement": "functional cell-based (calcium flux) response compared to DMSO vehicle background", "setting": "[3]", "result": "response to Bourgeonal over background"}, {"measurement": "functional cell-based calcium flux response", "setting": "[4]", "result": "response to Bourgeonal over background"}]}, {"compound": "N[C@@H](CCC(=O)O)C(=O)[O-].[Na+]", "note": "[MSG, monosodium glutamate]", "values": [{"measurement": "response of cells grown in the \"Final\" growth conditions", "setting": "[5]", "result": "not"}, {"measurement": "response of umami taste receptor cells and cell lines to known classes of umami compounds", "setting": "[6]", "result": "respond"}]}]}
